Data published in patent US7763615B2, “Ecteinascidin analogs for use as antitumour agents” (priority 2001, dated 2010).
Where two headings read alike, the source gives them in different places.

How the values were obtained:
H-MEC-1 = assay: Inhibition of cells growth by colorimetric assay (SRB), H-MEC-1; type: cell-based; settings: for CC50: read-out: LC50
Summary of the method: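 Seeding density 5×10^3 cells/well; attachment 18 h in drug-free medium; exposure 48 h, 10 to 10^−8 μg/ml. Fixation cold TCA 60 min at 4° C, SRB 10 min, absorbance 490 nm.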

[1] = test system: AML-12, normal mouse liver cells; settings: 24 h
Protocol: In order to assess the cytotoxicity of the drugs to normal cells, we used 96 well plates plated at a density of 5000 cells per well (except for the FDC-P1 which were plated at 12,000 cells per well) with normal cell lines (ATCC, Table 1) maintained as per the directions of the ATCC: AML-12, normal mouse liver cells; NRK-52E, normal rat kidney cells; L8, normal rat skeletal muscle cells; FDC-P1, normal mouse myelogeous stem cells; and H9c2 (2-1), normal rat cardiac muscle cells. The cells in each plate were permitted to settle overnight before adding the test drug.
To each well (100 μl medium) 10 μl of drug in media was added at varying concentrations (1×10-10-0.01 mg/ml final concentration) and further incubated overnight at 37° C. with 5% CO2. After 24 h the following assays were performed. All experiments were repeated at least 3 times and were assayed in duplicate.
MTS assay (CellTiter 96 aqueous) was performed according to the manufacturer's (Promega) directions (for all cell types). Cell viability (mitochondrial activity) is determined via enzymatic conversion of the formazan substrate.

[2] = 60 min
CYP3A4 = CYP3A4 (Homo sapiens, UniProt P08684); settings: 30 min, 10 µM
PANC-1 = assay: cells; type: cell-based; settings: for CC50: read-out: LC50
Summary of the method: (§1)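 Readout: SRB OD490, triplicate wells. Setup: 5×10^3 cells/well, RPMI 1640 + 10% FBS, 37° C, 5% CO2; 18 h pre-attachment; 48 h sample exposure, 10 to 10^−8 μg/ml. Outputs GI, TGI (cytostatic), LC (cytotoxic).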

IGROV = assay: cells; type: cell-based
Summary of the method: as §1

IGROV-ET = assay: cells; type: cell-based; settings: IGROV-ET; for CC50: read-out: LC50
Summary of the method: as §1

LOVO = assay: cells; type: cell-based; settings: LOVO; for CC50: read-out: LC50
Summary of the method: as §1

LOVO-DOX = assay: cells; type: cell-based; settings: LOVO-DOX; for CC50: read-out: LC50
Summary of the method: as §1

SK-BR3 = assay: cells; type: cell-based; settings: for CC50: read-out: LC50
Summary of the method: as §1

A549 = assay: cells; type: cell-based; settings: for GI50: read-out: GI50; for CC50: read-out: LC50
Summary of the method: as §1

DU145 = assay: cells; type: cell-based; settings: for CC50: read-out: LC50
Summary of the method: as §1

HT29 = assay: cells; type: cell-based; settings: for CC50: read-out: LC50
Summary of the method: as §1

MEL-28 = assay: cells; type: cell-based; settings: for CC50: read-out: LC50
Summary of the method: as §1

K562 = assay: cells; type: cell-based; settings: for CC50: read-out: LC50
Summary of the method: as §1

LNCAP = assay: cells; type: cell-based; settings: LNCAP; for CC50: read-out: LC50
Summary of the method: as §1

[3] = s9, 60 min, 1 μM
SK-OV3 = assay: Inhibition of cells growth by colorimetric assay (SRB), SK-OV3; type: cell-based; settings: for CC50: read-out: LC50
Summary of the method: as §1

[4] = test system: NRK-52E, normal rat kidney cells; settings: 24 h
[5] = test system: H9c2 (2-1), normal rat cardiac muscle cells; settings: 24 h
CYP2D6 [6] = target: T1, CYP2D6 (Homo sapiens, UniProt P10635); settings: 450 min, 10 µM
[7] = test system: FDC-P1, normal mouse myelogeous stem cells; settings: 24 h
[8] = test system: L8, normal rat skeletal muscle cells; settings: 24 h
(HEPG2) = settings: human, 24 h, 30 μM
CYP2D6 [9] = target: T1, CYP2D6; assay: in vitro; settings: CYP2D6 (% inhibition)
Lewis lung carcinoma = settings: mice, U.S. Pat. No. 5,149,804; cited from earlier work
P388 lymphoma = settings: mice, U.S. Pat. No. 5,149,804; cited from earlier work
B16 melanoma = settings: mice, U.S. Pat. No. 5,149,804; cited from earlier work
[10] = H-MEC-1, 48 hours exposure, SRB

T1 sequence (P10635 whole entry): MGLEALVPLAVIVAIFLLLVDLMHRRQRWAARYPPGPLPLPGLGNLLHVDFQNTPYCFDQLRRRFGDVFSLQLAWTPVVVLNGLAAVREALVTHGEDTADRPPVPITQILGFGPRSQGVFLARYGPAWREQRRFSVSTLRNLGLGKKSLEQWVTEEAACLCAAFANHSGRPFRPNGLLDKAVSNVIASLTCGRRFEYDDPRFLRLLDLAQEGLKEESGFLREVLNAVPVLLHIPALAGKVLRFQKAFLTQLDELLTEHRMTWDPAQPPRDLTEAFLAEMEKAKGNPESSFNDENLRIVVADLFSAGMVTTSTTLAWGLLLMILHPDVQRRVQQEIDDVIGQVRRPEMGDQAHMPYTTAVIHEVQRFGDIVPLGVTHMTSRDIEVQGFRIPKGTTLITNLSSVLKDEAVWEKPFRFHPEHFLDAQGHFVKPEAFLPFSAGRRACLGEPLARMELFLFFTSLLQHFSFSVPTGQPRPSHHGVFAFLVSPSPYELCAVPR
CYP3A4, sequence (P08684 whole entry): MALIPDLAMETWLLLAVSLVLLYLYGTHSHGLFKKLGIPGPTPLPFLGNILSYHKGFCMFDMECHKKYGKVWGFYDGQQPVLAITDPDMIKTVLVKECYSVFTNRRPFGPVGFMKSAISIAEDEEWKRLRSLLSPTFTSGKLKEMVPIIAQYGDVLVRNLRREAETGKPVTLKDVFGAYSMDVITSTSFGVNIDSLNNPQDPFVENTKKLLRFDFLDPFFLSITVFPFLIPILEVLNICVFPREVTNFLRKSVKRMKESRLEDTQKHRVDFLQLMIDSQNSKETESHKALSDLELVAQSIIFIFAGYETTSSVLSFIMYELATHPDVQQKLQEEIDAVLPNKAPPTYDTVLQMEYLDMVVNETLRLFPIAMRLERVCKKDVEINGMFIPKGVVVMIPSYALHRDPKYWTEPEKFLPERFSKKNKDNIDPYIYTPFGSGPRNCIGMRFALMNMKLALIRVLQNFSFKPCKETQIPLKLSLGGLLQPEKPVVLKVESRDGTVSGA

`COc1c(C)cc2c(c1O)[C@@H]1C3[C@@H]4SC[C@]5(NC(C)Cc6c5[nH]c5ccc(F)cc65)C(=O)COC[C@@H](c5c6c(c(C)c(OC(C)=O)c54)OCO6)N3[C@@H](O)[C@H](C2)N1C` (stereo partly shown) [Compound 42] showed a GI50 (H-MEC-1; [10]) of 40.4 nM, a TGI (H-MEC-1; [10]) of 2.47E−07 Molar and a CC50 (H-MEC-1; [10]) of 12.7 µM. For the same compound, the Liver [1] was 1.86E−07, the “Solubility Dulbecco's PBS pH 7.4” value was 10.37 μM and the “log D n-Octanol-Dulbecco's PBS pH 7.4” value [2] was over 4.8. For the same compound, the “CYP3A4 (% inhibition)” value (CYP3A4) was 78 % inhibition, the GI50 (PANC-1; PANC-1, 48 hours exposure, SRB) was 16.9 nM and the TGI (PANC-1; PANC-1, 48 hours exposure, SRB) was 8.25E−08 Molar. For the same compound, the CC50 (PANC-1; PANC-1, 48 hours exposure, SRB) was 12.7 µM, the GI50 (IGROV; 48 hours exposure, SRB) was 2.44 nM and the TGI (IGROV; 48 hours exposure, SRB) was 5.12E−09 Molar. The CC50 (IGROV; read-out: LC50, 48 hours exposure, SRB) was 10.7 nM, the GI50 (IGROV-ET; 48 hours exposure, SRB) was 43.2 nM and the TGI (IGROV-ET; 48 hours exposure, SRB) was 9.42E−08 Molar. The CC50 (IGROV-ET; 48 hours exposure, SRB) was 12.7 µM, the GI50 (LOVO; 48 hours exposure, SRB) was 13.5 nM and the TGI (LOVO; 48 hours exposure, SRB) was 4.37E−08 Molar. It also gave a CC50 (LOVO; 48 hours exposure, SRB) of 127 nM, a GI50 (LOVO-DOX; 48 hours exposure, SRB) of 45.9 nM and a TGI (LOVO-DOX; 48 hours exposure, SRB) of 2.05E−07 Molar. For the same compound, the CC50 (LOVO-DOX; 48 hours exposure, SRB) was 12.7 µM, the GI50 (SK-BR3; SK-BR3, 48 hours exposure, SRB) was 6.63 nM and the TGI (SK-BR3; SK-BR3, 48 hours exposure, SRB) was 2.44E−08 Molar. It also gave a CC50 (SK-BR3; SK-BR3, 48 hours exposure, SRB) of 87.3 nM, a TGI (A549; A549, 48 hours exposure, SRB) of 4.09E−08 Molar and a GI50 (A549; A549, 48 hours exposure, SRB) of 22 nM. For the same compound, the CC50 (A549; A549, 48 hours exposure, SRB) was 75.9 nM, the GI50 (DU145; DU145, 48 hours exposure, SRB) was 3.51 nM and the TGI (DU145; DU145, 48 hours exposure, SRB) was 7.97E−09 Molar. It also gave a CC50 (DU145; DU145, 48 hours exposure, SRB) of 12.7 nM, a GI50 (HT29; HT29, 48 hours exposure, SRB) of 34.1 nM and a TGI (HT29; HT29, 48 hours exposure, SRB) of 1.42E−07 Molar. The CC50 (HT29; HT29, 48 hours exposure, SRB) was 12.7 µM, the GI50 (MEL-28; MEL-28, 48 hours exposure, SRB) was 0.404 nM and the TGI (MEL-28; MEL-28, 48 hours exposure, SRB) was 9.77E−10 Molar. It also gave a CC50 (MEL-28; MEL-28, 48 hours exposure, SRB) of 6.19 nM, a GI50 (K562; K562, 48 hours exposure, SRB) of 4.77 nM and a TGI (K562; K562, 48 hours exposure, SRB) of 9.15E−09 Molar. The CC50 (K562; K562, 48 hours exposure, SRB) was 2810 nM, the GI50 (LNCAP; 48 hours exposure, SRB) was 3.74 nM and the TGI (LNCAP; 48 hours exposure, SRB) was 6.61E−09 Molar. The CC50 (LNCAP; 48 hours exposure, SRB) was 11.7 nM, the “Human Liver S9 Metabolic Stability (% remaining)” value [3] was 5 % remaining and the GI50 (SK-OV3; SK-OV3, 48 hours exposure, SRB) was 7.37 nM. It also gave a TGI (SK-OV3; SK-OV3, 48 hours exposure, SRB) of 7.92E−07 Molar, a CC50 (SK-OV3; SK-OV3, 48 hours exposure, SRB) of 12.7 µM and a Kidney [4] of 1.12E−09. For the same compound, the Heart [5] was 1.42E−07, the “CYP2D6 (% inhibition)” value (CYP2D6 [6]) was 19 % inhibition and the Myelo [7] was 6.41E−08. The Skeletal [8] was 3.37E−08 and the “Cell Viability (% inhibition)” value ((HEPG2)) was 67 % inhibition.
Work on `COc1c(C)cc2c(c1O)[C@@H]1C3[C@@H]4SC[C@]5(NC(C)Cc6c5[nH]c5ccccc65)C(=O)COC[C@@H](c5c6c(c(C)c(OC(C)=O)c54)OCO6)N3[C@@H](O)[C@H](C2)N1C` (stereo partly shown) [Compound 44] yielded a GI50 (H-MEC-1; H-MEC-1) of 75.3 nM, a TGI (H-MEC-1; H-MEC-1) of 1.31E−06 and a CC50 (H-MEC-1; H-MEC-1) of at least 13 µM. The Liver [1] was 4.33E−07, the “Solubility Dulbecco's PBS pH 7.4” value was 20.69 μM and the “log D n-Octanol-Dulbecco's PBS pH 7.4” value [2] was over 4.9. For the same compound, the “CYP3A4 (% inhibition)” value (CYP3A4) was 72 % inhibition, the GI50 (PANC-1; PANC-1) was 56.7 nM and the TGI (PANC-1; PANC-1) was 1.55E−07. For the same compound, the CC50 (PANC-1; PANC-1) was at least 13 µM, the GI50 (IGROV) was 4.29 nM and the TGI (IGROV) was 1.22E−08. It also gave a CC50 (IGROV; read-out: LC50) of 93 nM, a GI50 (IGROV-ET) of 28.5 nM and a TGI (IGROV-ET) of 7.06E−08. For the same compound, the CC50 (IGROV-ET) was 0.13 µM, the GI50 (LOVO) was 27.1 nM and the TGI (LOVO) was 5.10E−08. For the same compound, the CC50 (LOVO) was 96.1 nM, the GI50 (LOVO-DOX) was 91 nM and the TGI (LOVO-DOX) was 8.53E−07. For the same compound, the CC50 (LOVO-DOX) was at least 13 µM, the GI50 (SK-BR3; SK-BR3) was 12.7 nM and the TGI (SK-BR3; SK-BR3) was 4.27E−08. For the same compound, the CC50 (SK-BR3; SK-BR3) was 177 nM, the TGI (A549; A549) was 4.76E−08 and the GI50 (A549; A549) was 27.4 nM. The CC50 (A549; A549) was 82.3 nM, the GI50 (DU145; DU145) was 6.54 nM and the TGI (DU145; DU145) was 1.18E−08. The CC50 (DU145; DU145) was at least 13000 nM, the GI50 (HT29; HT29) was 59.8 nM and the TGI (HT29; HT29) was 4.59E−07. It also gave a CC50 (HT29; HT29) of at least 13 µM, a GI50 (MEL-28; MEL-28) of 2.63 nM and a TGI (MEL-28; MEL-28) of 5.22E−09. For the same compound, the CC50 (MEL-28; MEL-28) was 10.3 nM, the GI50 (K562; K562) was 3.94 nM and the TGI (K562; K562) was 9.38E−09. It also gave a CC50 (K562; K562) of 107 nM, a GI50 (LNCAP) of 4.3 nM and a TGI (LNCAP) of 8.84E−09. For the same compound, the CC50 (LNCAP) was 31.1 nM, the “Human Liver S9 Metabolic Stability (% remaining)” value [3] was 4 % remaining and the GI50 (SK-OV3; SK-OV3) was 37.5 nM. For the same compound, the TGI (SK-OV3; SK-OV3) was 1.31E−07, the CC50 (SK-OV3; SK-OV3) was at least 13 µM and the Kidney [4] was 4.15E−07. The inhibition at 450 min, 10 µM (CYP2D6 [9]) was 16%, the Heart [5] was 5.20E−06 and the Myelo [7] was 1.21E−07. The Skeletal [8] was 4.02E−08 and the “Cell Viability (% inhibition)” value ((HEPG2)) was 73 % inhibition.
For `COc1c(C)cc2c(c1O)[C@H]1N[C@@H](C2)[C@H](O)N2[C@H]1[C@@H]1SC[C@]3(NCCc4c3[nH]c3ccccc43)C(=O)OC[C@H]2c2c3c(c(C)c(OC(C)=O)c21)OCO3` [Ecteinascidin 722, ecteinascidin 722], the “in vivo protection against Lewis lung carcinoma” value (Lewis lung carcinoma) is listed as “protect mice in vivo at very low concentrations”, the “in vivo protection against P388 lymphoma” value (P388 lymphoma) is listed as “protect mice in vivo at very low concentrations” and the “in vivo protection against B16 melanoma” value (B16 melanoma) is listed as “protect mice in vivo at very low concentrations”.
For `COc1c(C)cc2c(c1O)[C@@H]1C3[C@@H]4SC[C@]5(NCCc6c5[nH]c5ccccc65)C(=O)OC[C@@H](c5c6c(c(C)c(OC(C)=O)c54)OCO6)N3[C@@H](O)[C@H](C2)N1C` (stereo partly shown) [Ecteinascidin 736, ecteinascidin 736], the “in vivo protection against Lewis lung carcinoma” value (Lewis lung carcinoma) is listed as “protect mice in vivo at very low concentrations”, the “in vivo protection against P388 lymphoma” value (P388 lymphoma) is listed as “protect mice in vivo at very low concentrations” and the “in vivo protection against B16 melanoma” value (B16 melanoma) is listed as “protect mice in vivo at very low concentrations”.
